According to the RepoRT retention time repository (doi:10.1016/j.aca.2019.02.001):

Test: RP, Agilent ZORBAX Eclipse XDB-C18, 100 × 2.1 mm, 1.8 µm, 50 °C, 0.4 mL/min, estimated dead time 0.55 min; A: water + 0.1% formic acid; B: methanol; gradient (min/%B) 0/30 2/30 5/52 15/65 20/78 22.5/78 29/90 38/100
Conditions: stereoisomer not certain

LC retention time | Compound
9.67 min | CCC(=O)O
24.2 min | CC(CCC(=O)O)C1CCC2C3C(O)CC4CC(O)CCC4(C)C3CC(O)C12C (configuration not stated)
13.4 min | O=C(O)Cc1c[nH]c2ccccc12
6.29 min | CC(O)C(N)C(=O)O (configuration not stated)
17.4 min | O=C(O)c1cc(=O)c2ccccc2[nH]1
17.1 min | CC(C)CCC(=O)O
28.4 min | CCCCCCCCCCCCCCC(=O)O
11.4 min | CCC(C)C(N)C(=O)O (configuration not stated)
8.32 min | O=C(O)c1cccnc1C(=O)O
14 min | CC(C)CC(=O)O
16.7 min | CCC(C)CC(=O)O (configuration not stated)
16.2 min | NCCCCC(N)C(=O)O (configuration not stated)
20.2 min | CCCCC(CC)C(=O)O (configuration not stated)
3.02 min | NC(N)=NCCCC(N)C(=O)O (configuration not stated)
19.7 min | CCCCCCC(=O)O
9.34 min | CC(C)C(N)C(=O)O (configuration not stated)
27.5 min | CCC=CCC=CCC=CCC=CCC=CCCCC(=O)O
8.11 min | CC(=O)O
8.37 min | O=C(O)C1CCCN1 (configuration not stated)
9.8 min | NCCCCNCCCN
9.89 min | NC(Cc1c[nH]c2ccccc12)C(=O)O (configuration not stated)
30.5 min | CCCCCCCCC=CCCCCCCCC(=O)O
25.2 min | CC(CCC(=O)O)C1CCC2C3CCC4CC(O)CCC4(C)C3CC(O)C12C (configuration not stated)
14.5 min | CCCCC(=O)O
27.5 min | CCC=CCC=CCC=CCCCCCCCC(=O)O
27.3 min | CCCCCCCCCCCCCC(=O)O

LC retention time | Compound
11.4 min | CC(C)C(=O)O
11.8 min | NC(Cc1ccccc1)C(=O)O (configuration not stated)
5.14 min | NC(CO)C(=O)O (configuration not stated)
12.1 min | O=C(O)C(O)Cc1c[nH]c2ccccc12 (configuration not stated)
12.1 min | COc1ccc2[nH]cc(CC(=O)O)c2c1
15.7 min | Nc1c(O)cccc1C(=O)O
27.9 min | CCCCCCC=CCCCCCCCC(=O)O
3.75 min | NC(=O)CC(N)C(=O)O (configuration not stated)
4.45 min | NC(=O)CCC(N)C(=O)O (configuration not stated)
5.87 min | NCCO
6.5 min | NCCCNCCCCNCCCN
34.2 min | CCCCCCCCC=CCCCCCCCCCCCCCC(=O)O
20.6 min | CCCCCC(C)C(=O)O (configuration not stated)
2.35 min | NC(Cc1cnc[nH]1)C(=O)O (configuration not stated)
29.8 min | CCCCCCCCCCCCCCCC(=O)O
28.8 min | CCCCCC=CCC=CCCCCCCCC(=O)O
34 min | CCCCCCCCCCCCCCCCCCCCCC(=O)O
15.5 min | O=C(O)C(=O)Cc1c[nH]c2ccccc12
12.1 min | O=C(O)Cc1c[nH]c2ccc(O)cc12
26.2 min | CC(CCC(=O)O)C1CCC2C3CCC4CC(O)CCC4(C)C3CCC12C (configuration not stated)
28.5 min | CCC=CCC=CCC=CCC=CCC=CCC=CCCC(=O)O
25.6 min | CCCCCCCCCCCC(=O)O
21.4 min | CCCCCCCC(=O)O
11.8 min | CCCC(=O)O
32.9 min | CCCCCCCCC=CCCCCCCCCCCCC(=O)O
9.21 min | Nc1ccccc1C(=O)CC(N)C(=O)O (configuration not stated)

LC retention time | Compound
9.89 min | O=C(O)c1cc(=O)c2cccc(O)c2[nH]1
17.6 min | NCCCCN
31.8 min | CCCCCCCCC=CCCCCCCCCCC(=O)O
31.5 min | CCCCCCCCCCCCCCCCCC(=O)O
18.9 min | CCCCC(C)C(=O)O (configuration not stated)
5.85 min | NCC(=O)O
20.5 min | NC(Cc1ccc(O)cc1)C(=O)O (configuration not stated)
7.25 min | O=C(O)CCCC(=O)C(=O)O
21 min | Nc1c(O)cccc1C(=O)CC(N)C(=O)O (configuration not stated)
24.3 min | CCCCCCCCCC(=O)O
17.4 min | CCCCCC(=O)O
12.2 min | CC(=O)NCCc1c[nH]c2ccc(O)cc12
9.06 min | CSCCC(N)C(=O)O (configuration not stated)
6.31 min | NC(CS)C(=O)O (configuration not stated)
22.5 min | CCCCC(C)CCC(=O)O (configuration not stated)
23 min | CCCCCCCCC(=O)O
11.7 min | CC(C)CC(N)C(=O)O (configuration not stated)
26.4 min | CCCCCCCCCCCCC(=O)O
11.9 min | COc1cc2c(CCNC(C)=O)c[nH]c2cc1O
24.9 min | CC(CCC(=O)O)C1CCC2C3C(O)CC4CC(O)CCC4(C)C3CCC12C (configuration not stated)
28.7 min | CCCCCC=CCC=CCC=CCC=CCCCC(=O)O
33.4 min | CCCCCCCCCCCCCCCCCCCCC(=O)O
32.1 min | CCCCCCCCCCCCCCCCCCC(=O)O
6.78 min | CC(N)C(=O)O (configuration not stated)

Compound | LC retention time
NCCc1c[nH]c2ccccc12 | 13.4 min
